Laboratory results: PubChem BioAssay (NCI)
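96-well plates; 48 h exposure; 5 concentrations. Endpoints by linear interpolation between flanking doses. Not reached: highest tested concentration assigned. At the TGI there is no net growth.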

Experiments:
Assay in all cases: NCI tumour cell line growth inhibition, 48 h
[1] = system: UACC-257 melanoma
[2] = system: LXFL 529 NSCLC
[3] = system: SF-539 CNS
[4] = system: OVCAR-5 ovarian
[5] = system: OVCAR-8 ovarian
[6] = system: SF-295 CNS
[7] = system: OVCAR-4 ovarian
[8] = system: U251 CNS
[9] = system: SK-MEL-5 melanoma
[10] = system: HL-60(TB) leukemia
[11] = system: SNB-78 CNS
[12] = system: HOP-62 NSCLC
[13] = system: 786-0 renal
[14] = system: M19-MEL melanoma
[15] = system: DMS 273 small cell lung
[16] = system: CAKI-1 renal
[17] = system: RPMI-8226 leukemia
[18] = system: SF-268 CNS
[19] = system: HT29 colon
[20] = system: HCT-116 colon
[21] = system: SR leukemia
[22] = system: SNB-19 CNS
[23] = system: SNB-75 CNS
[24] = system: DLD-1 colon
[25] = system: KM20L2 colon
[26] = system: MALME-3M melanoma
[27] = system: CCRF-CEM leukemia
[28] = system: NCI-H522 lung
[29] = system: UACC-62 melanoma
[30] = system: COLO 205 colon
[31] = system: HOP-92 NSCLC
[32] = system: SK-MEL-2 melanoma
[33] = system: KM12 colon
[34] = system: NCI-H460 lung
[35] = system: K-562 leukemia
[36] = system: SN12C renal
[37] = system: DMS 114 small cell lung
[38] = system: HOP-18 NSCLC
[39] = system: EKVX NSCLC
[40] = system: IGROV1 ovarian
[41] = system: A549 NSCLC
[42] = system: NCI-H23 lung
[43] = system: NCI-H226 lung
[44] = system: SK-MEL-28 melanoma
[45] = system: SW-620 colon
[46] = system: HCT-15 colon
[47] = system: M14 melanoma
[48] = system: MOLT-4 leukemia
[49] = system: ACHN renal
[50] = system: UO-31 renal
[51] = system: A498 renal
[52] = system: SK-OV-3 ovarian
[53] = system: OVCAR-3 ovarian
[54] = system: HCC-2998 colon
[55] = system: RXF 393 renal
[56] = system: TK-10 renal
[57] = system: LOX IMVI melanoma

Measured: TGI

Cc1ccccc1-n1c(=O)sc2c(=O)n(-c3ccccc3)c(=S)[nH]c21
not listed: [56] | [57]
> 100 µM: all other assays above

COc1cc(C(=O)NO)ccc1O
not listed: [9] | [16] | [21] | [43]
> 100 µM: all other assays above
